Results reported in patent US10981932B2, “Macrocyclic indole derivatives” (Bayer Aktiengesellschaft, priority 2016, dated 2021).
“And” between values parts separate entries of the source, which are not always exact repeats. Identical values can stand only once. Counter-ions that a name gives are not always drawn. Like-named read-outs stand apart in the source and are kept apart here.

Columns and labels:
[1] = target: MCL-1 (Homo sapiens, UniProt Q07820); assay: Protein-protein interaction assay MCL-1/Noxa BH3 peptide (MCL-1 assay), TR-FRET; format: binding; conditions: MBP-MCL-1 / Noxa BH3-derived peptide, median
Chain of MCL-1 (Q07820 whole entry): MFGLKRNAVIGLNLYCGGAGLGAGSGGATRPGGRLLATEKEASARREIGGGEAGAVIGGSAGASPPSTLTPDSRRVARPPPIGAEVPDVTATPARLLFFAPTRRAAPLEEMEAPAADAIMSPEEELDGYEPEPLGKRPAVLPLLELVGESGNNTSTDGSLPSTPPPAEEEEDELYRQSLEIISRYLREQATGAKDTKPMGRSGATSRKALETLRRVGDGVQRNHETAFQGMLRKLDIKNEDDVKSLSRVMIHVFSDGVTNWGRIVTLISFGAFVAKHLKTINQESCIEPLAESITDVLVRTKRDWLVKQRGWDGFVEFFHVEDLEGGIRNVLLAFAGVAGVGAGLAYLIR
How it was run: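 Steady-state competition, MCL-1/Noxa BH3, TR-FRET readout; 1 nM MBP-MCL-1, 11-point dose series 0.1 nM–20 μM; overnight 4 °C equilibration; 4-parameter IC50.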

[2] = tested on: SUDHL5; assay: Induction of caspase-3/7 activity (Caspase-Glo 3/7), SUDHL5; format: cell-based; conditions: caspase-3/7 induction, SUDHL5 cells, 3 h treatment, median
How it was run: (§1)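 A 3 h, 37 °C compound incubation precedes the Caspase-Glo 3/7 read. After subtracting medium-only signal, EC50s are fitted against the reference compound's maximal caspase induction.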

[3] = tested on: SUDHL10; assay: Induction of caspase-3/7 activity (Caspase-Glo 3/7), SUDHL10; format: cell-based; conditions: caspase-3/7 induction, SUDHL10 cells, 3 h treatment, median
How it was run: as §1

[4] = tested on: SUDHL10; assay: Anti-proliferative effect (CellTiter-Glo, 72 h), SUDHL10; format: cell-based; conditions: SUDHL10 cells, antiproliferation, 72 h incubation, median, read-out: Antiproli SUDHL10 [M] (median)
How it was run: (§2)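 Endpoint: CellTiter-Glo luminescence, 10 min after reagent addition. Treatment ran 72 h at 37 °C, humidified. Growth was referenced to a separately plated day 0 plate.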

[5] = tested on: OPM2; assay: Anti-proliferative effect (CellTiter-Glo, 72 h), OPM2; format: cell-based; conditions: OPM2 cells, median, read-out: IC50 antiproliferation assay OPM2 [M] (median)
Description: Assessment of the Anti-Proliferative Effect of Compounds in Different Cell Lines
The impact of compounds on the proliferation of different cell lines was assessed using the CellTiter-Glo® Luminescent Cell Viability reagent from Promega (G7573). Of note, SUDHL10 and SUDHL5 (DLBCL), NCI-H929 (Multiple Myeloma), A2780 (ovarian carcinoma) as well as MV-4-11(AML) cells are sensitive to MCL-1 inhibition.
In parallel, cells were plated in a reference (day 0) plate for time zero determination.
Rim wells were excluded. The cells were incubated for 72 h hours in a humidified incubator at 37° C. The day 0 plate was measured by adding 30 μl/well of CTG solution (CellTiter-Glo® Luminescent Cell Viability reagent, Promega G7573) to time zero wells in the reference plate followed by a 10 minutes incubation and luminescence reading at 0.1 ms, using the PHERAstar FS microplate reader (BMG Labtech).
After 72 h incubation, the treated plates were measured in the same way as the day 0 plate mentioned above.

[6] = tested on: A2780; assay: Anti-proliferative effect (CellTiter-Glo, 72 h), A2780; format: cell-based; conditions: A2780 cells, median, read-out: IC50 antiproliferation assay A2780 [M] (median)
How it was run: as §2

[7] = tested on: SUDHL5; assay: Induction of cytotoxicity (CellTiter-Glo, 5 h), SUDHL5
[8] = tested on: SUDHL10; assay: Induction of cytotoxicity (CellTiter-Glo, 5 h), SUDHL10
[9] = Homo sapiens, SU-DHL-5, 5 h, read-out: Cytotox SUDHL5 [M] (median), SUDHL5 cells, cytotoxicity induction, CellTiter-Glo, 5 h incubation, median
[10] = Homo sapiens, SU-DHL10, 5 h, read-out: Cytotox SUDHL10 [M] (median), SUDHL10 cells, cytotoxicity induction, CellTiter-Glo, 5 h incubation, median
[11] = read-out: Cytotox SUDHL5 [M] (median), SUDHL5 cells, cytotoxicity induction, CellTiter-Glo, 5 h incubation, median
[12] = read-out: Cytotox SUDHL10 [M] (median), SUDHL10 cells, cytotoxicity induction, CellTiter-Glo, 5 h incubation, median

Row | IC50 [1] [µM] | EC50 ([2]; Homo sapiens, SU-DHL-5, 3 h) [µM] | EC50 ([3]; Homo sapiens, SU-DHL10, 3 h) [µM] | IC50 ([4]; Homo sapiens, SU-DHL10, 72 h) [M] | IC50 ([6]; Homo sapiens, A2780, 72 h) [M] | EC50 [2] [µM] | EC50 [3] [µM] | IC50 [4] [M] | IC50 [6] [M] | Structure (SMILES) | IC50 ([5]; Homo sapiens, OPM-2, 72 h) [M] | IC50 [7, 9] [M] | IC50 [8, 10] [M] | IC50 [7, 11] | IC50 [5] [M] | IC50 [8, 12] [M]
1 | 0.0144 | > 33 | > 33 | 9.32e-06 | 2.44e-05 |  |  |  |  | CN1CCCCn2c(C(=O)O)c(CCCOc3cccc4ccccc34)c3cccc(c32)-c2cnn(C)c2C1 (racemic) [Example 127, (rac)-1,14-dimethyl-7-[3-(naphthalen-1-yloxy)propyl]-10,11,12,13,14,15-hexahydro-1H-pyrazolo[3′,4′:8,9][1,6]diazacycloundecino[10,11,1-hi]indole-8-carboxylic Acid] | > 3.3e-05 | > 3.3e-05 | > 3.3e-05 |  |  | 
2 | 0.0403 | > 33 | > 33 | 1.29e-05 | 3.04e-05 |  |  |  |  | Cn1ncc2c1COCCCCn1c(C(=O)O)c(CCCOc3cccc4ccccc34)c3cccc-2c31 (racemic) [Example 128, (rac)-1-methyl-7-[3-(naphthalen-1-yloxy)propyl]-1,10,11,12,13,15-hexahydropyrazolo[4′,3′:9,10][1,6]oxazacycloundecino[8,7,6-hi]indole-8-carboxylic Acid] | > 3.3e-05 | > 3.3e-05 | > 3.3e-05 |  |  | 
3 | 0.0222 | > 33 | > 33 | 6.99e-06 | 1.7e-05 |  |  |  |  | CN1CCCn2c(C(=O)O)c(CCCOc3cccc4ccccc34)c3cccc(c32)-c2c(CNCC(F)(F)F)nn(C)c2C1 (racemic) [Example 129, (rac)-7,9-dimethyl-1-[3-(naphthalen-1-yloxy)propyl]-11-{[(2,2,2-trifluoroethyl)amino]methyl}-4,5,6,7,8,9-hexahydropyrazolo[3′,4′:7,8][1,5]diazecino[9,10,1-hi]indole-2-carboxylic Acid (Racemate)] | > 3.3e-05 | > 3.3e-05 | > 3.3e-05 |  |  | 
4 | 0.0135 | 11.1 | > 33 | 1.16e-05 | > 3.3e-05 |  |  |  |  | Cn1nc(CN2CCOCC2)c2c1COCCCn1c(C(=O)O)c(CCCOc3cccc4ccccc34)c3cccc-2c31 (racemic) [Example 138, (rac)-9-methyl-11-(morpholin-4-ylmethyl)-1-[3-(naphthalen-1-yloxy)propyl]-5,6,8,9-tetrahydro-4H-pyrazolo[4′,3′:8,9][1,5]oxazecino[7,6,5-hi]indole-2-carboxylic Acid] | > 3.3e-05 | 1.13e-05 | > 3.3e-05 |  |  | 
5 | 0.0283 | > 33 | > 33 | 2.13e-05 | 2.55e-05 |  |  |  |  | CC(C)OCc1nn(C)c2c1-c1cccc3c(CCCOc4cccc5ccccc45)c(C(=O)O)n(c13)CCCN(C)C2 (single isomer, unassigned) [Example 1-71, 7,9-dimethyl-1-[3-(naphthalen-1-yloxy)propyl]-1-[(propan-2-yloxy)methyl]-4,5,6,7,8,9-hexahydropyrazolo[3′,4′:7,8][1,5]diazecino[9,10,1-hi]indole-2-carboxylic Acid] | 2.57e-05 |  | > 3.3e-05 | 1.98e-05 M and > 3.3e-05 M |  | 
6 | 0.00106 |  |  |  |  | 0.723 | 0.897 | 1.1e-06 | 5.32e-06 | CN(C)S(=O)(=O)N1CCN(c2ccc(OCc3nn(C)c4c3-c3cccc5c(CCCOc6cccc7ccccc67)c(C(=O)O)n(c35)CCCCCC4)cc2)CC1 (single isomer, unassigned; enantiomer 2) [Example 1-41, 3-({4-[4-(dimethylsulfamoyl)piperazin-1-yl]phenoxy}methyl)-1-methyl-7-[3-(naphthalen-1-yloxy)propyl]-10,11,12,13,14,15-hexahydro-1H-pyrazolo[4′,3′:4,5]azacycloundecino[3,2,1-hi]indole-8-carboxylic acid-N-ethylethanamine Salt (Enantiomer 2)] |  |  |  | 7.69e-07 M | 2.17e-06 | 1.52e-06
7 | 0.041 |  |  |  |  | > 33 | > 33 | 1.17e-05 | > 3.3e-05 | Cc1c2c(nn1CCN1CCOCC1)COCCCCn1c(C(=O)O)c(CCCOc3cccc4ccccc34)c3cccc-2c31 (single isomer, unassigned; enantiomer 2) [Example 055, 3-methyl-2-[2-(morpholin-4-yl)ethyl]-7-[3-(naphthalen-1-yloxy)propyl]-2,10,11,12,13,15-hexahydropyrazolo[4′,3′:9,10][1,6]oxazacycloundecino[8,7,6-hi]indole-8-carboxylic acid-N-ethylethanamine Salt (Enantiomer 2)] |  |  |  | > 3.3e-05 M | > 3.3e-05 | > 3.3e-05
8 | 0.116 |  |  |  |  | > 33 | > 33 | 2.05e-05 | > 3.3e-05 | COCCn1nc2c(c1CN1CCOCC1)-c1cccc3c(CCCOc4cccc5ccccc45)c(C(=O)O)n(c13)CCCN(C)C2 (single isomer, unassigned; enantiomer 2) [Example 058, 10-(2-methoxyethyl)-7-methyl-11-(morpholin-4-ylmethyl)-1-[3-(naphthalen-1-yloxy)propyl]-4,5,6,7,8,10-hexahydropyrazolo[3′,4′:7,8][1,5]diazecino[9,10,1-hi]indole-2-carboxylic Acid (Enantiomer 2)] |  |  |  | > 3.3e-05 M | > 3.3e-05 | > 3.3e-05
9 | 0.0829 |  |  |  |  | > 33 | 30.5 | 4.86e-06 | 1.19e-05 | CC(C)c1c2c(nn1C)CN(C)CCCn1c(C(=O)O)c(CCCOc3cccc4ccccc34)c3cccc-2c31 (single isomer, unassigned; enantiomer 2) [Example 115, 7,10-dimethyl-1-[3-(naphthalen-1-yloxy)propyl]-1-(propan-2-yl)-4,5,6,7,8,10-hexahydropyrazolo[3′,4′:7,8][1,5]diazecino[9,10,1-hi]indole-2-carboxylic Acid (Enantiomer 2)] |  |  |  | 1.13e-05 M | 1.9e-05 | 1.49e-05
10 | 0.0208 |  |  |  |  | 17.9 | > 33 | 1.49e-05 | > 3.3e-05 | COCc1nn(C)c2c1-c1cccc3c(CCCOc4cccc5ccccc45)c(C(=O)O)n(c13)CCCCOC2 (single isomer, unassigned; enantiomer 2) [Example 160, 3-(methoxymethyl)-1-methyl-7-[3-(naphthalen-1-yloxy)propyl]-1,10,11,12,13,15-hexahydropyrazolo[4′,3′:9,10][1,6]oxazacycloundecino[8,7,6-hi]indole-8-carboxylic acid-N-ethylethanamine Salt (Enantiomer 2)] |  |  |  | 2.05e-05 M | > 3.3e-05 | > 3.3e-05
11 | 0.144 |  |  |  |  | > 33 | > 33 | 1.53e-05 | > 3.3e-05 | CCOCc1nn(C)c2c1-c1cccc3c(CCCOc4cccc5c4CCCC5)c(C(=O)O)n(c13)CCCCOC2 (single isomer, unassigned; enantiomer 2) [Example 172, 3-(ethoxymethyl)-1-methyl-7-[3-(5,6,7,8-tetrahydronaphthalen-1-yloxy)propyl]-1,10,11,12,13,15-hexahydropyrazolo[4′,3′:9,10][1,6]oxazacycloundecino[8,7,6-hi]indole-8-carboxylic Acid (Enantiomer 2)] |  |  |  | > 3.3e-05 M | > 3.3e-05 | > 3.3e-05
